Here are results for ten molecules from PubChem BioAssay (NCI).

Molecules are shown by their SMILES. Where “and” joins values, the source holds several entries; their conditions need not be identical. Equal values may be shown once.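 48-hour exposure; five concentrations; linearly interpolated endpoints. GI50 = concentration required for 50% inhibition of growth. The concentration for full growth arrest is given as TGI.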

What all share (test): NCI tumour cell line growth inhibition, 48 h
In assay [1] the test system is A498 renal.
Assay [2] deals with COLO 205 colon.
Assay [3] has as its system HCT-15 colon.
The subject of assay [4] is MALME-3M melanoma.
Assay [5] relates to MDA-MB-435.
The subject of assay [6] is OVCAR-5 ovarian.
Assay [7] deals with SNB-19 CNS.
In assay [8] the test system is TK-10 renal.
Assay [9] relates to U251 CNS.
In assay [10] the test system is UO-31 renal.

Turning to `CN(C)CCCN1c2nc3ccccc3cc2Sc2cc3ccccc3nc21`, the GI50 in [1] is 1.57 µM; in assay [2] it was 1.24 µM; in assay [3] it was 1.33 µM; in [4] it was 1.33 µM; in [5] it was 1.51 µM; in assay [6], 1.54 µM. Further, the GI50 in [7] is 1.69 µM; in assay [8], 1.65 µM; in assay [9] it was 1.6 µM; in assay [10], 1.27 µM. Moreover, the TGI in assay [1] amounted to 2.96 µM; in [2], 2.82 µM; in [3], 2.87 µM; in assay [4], 2.89 µM; in [5], 2.96 µM; in assay [6] it was 2.97 µM. For the same molecule, the TGI in [7] is 3.13 µM; in [8], 3.1 µM; in assay [9] it was 3.08 µM; in assay [10] it was 2.71 µM.

Turning to `ClC(Cl)c1nc(-c2cccnc2)n2nc(-c3ccccc3)cc2n1`, the GI50 in assay [1] is 0.0299 µM; in assay [2], 0.592 µM; in assay [3], 0.472 µM; in assay [4], 1.59 µM; in assay [5], 1.34 µM; in assay [6], 1.9 µM. Further, the GI50 was 1.88 µM in assay [7], 1.84 µM in assay [8] and 1.46 µM in assay [9]. For the same molecule, the TGI in assay [1] was found to be 2.17 µM; in assay [2], 2.39 µM; in assay [3], 3.44 µM; in assay [4], 3.25 µM; in assay [5], 2.82 µM; in assay [6], 5.43 µM. Also, the TGI came to 5.89 µM in [7], 6.49 µM in [8] and 5.11 µM in assay [9].

Regarding `O=C(Nc1ccc(Cl)cc1)c1ccc(NC2=C(Cl)C(=O)N(Cc3ccccc3)C2=O)cc1`, the GI50 is 17.7 µM in [1]; 30.3 µM in [2]; 24.4 µM in [3]; 12.7 µM in assay [5]; 14.1 µM in assay [6]; 23.2 µM in assay [7]. The GI50 in assay [9] is 8.07 µM; in [10] it was 14.7 µM. In addition, the TGI in assay [1] was 47.8 µM; in assay [2] it was greater than 100 µM; in assay [3], greater than 100 µM; in [5], 33.1 µM; in assay [6], 28.1 µM; in [7], 76.6 µM. In addition, the TGI in assay [9] was 20.4 µM; in [10] it was 29.8 µM.

For `Nc1nnc2cc(Cl)ccc2n1`, the GI50 in assay [1], in [2], in [3], in assay [4], in assay [5] and in assay [6] was greater than 100 µM each time. Further, the GI50 in assay [7] is greater than 100 µM; in [9], greater than 100 µM; in [10] it was 30.2 µM. Further, the TGI in assay [1], in [2], in assay [3], in assay [4], in assay [5] and in assay [6] was greater than 100 µM throughout. The TGI in assay [7], in [9] and in assay [10] was greater than 100 µM each time.

Take `Nc1ccc2c(c1)NCCN2`: the TGI in assay [2], in [3], in assay [4], in assay [5], in assay [6] and in assay [7] was greater than 100 µM each time. Also, the TGI in assay [8], in [9] and in assay [10] was greater than 100 µM in each case.

As to `CCOC(=O)c1[nH]c(-c2ccc(Cl)cc2)cc1-c1cccnc1`, the GI50 in assay [1] is 0.811 µM; in assay [2] it was 0.398 µM; in assay [3] it was 0.437 µM; in assay [5], 0.279 µM; in assay [6], 1.17 µM; in [7] it was 8.33 µM. For the same molecule, the GI50 was 0.972 µM in assay [8], 0.622 µM in assay [9] and 1.02 µM in assay [10]. Besides, the TGI is 9.37 µM in assay [1]; 7.49 µM in assay [2]; greater than 100 µM in [3]; 1.42 µM in assay [5]; greater than 100 µM in [6]; greater than 100 µM in assay [7]. For the same molecule, the TGI in [8], in assay [9] and in [10] was greater than 100 µM in each case.

As for `COc1cc2c3c(n(CCCNCCN)c(=O)c2cc1OC)-c1cc2c(cc1C3=O)OCO2`, the GI50 in assay [2] is greater than 100 µM; in assay [4], 0.654 µM; in assay [5] it was 1.02 µM; in assay [6], 1.39 µM; in assay [7], 40.8 µM; in [8], 2.9 µM. The values for the GI50 in [9] and in assay [10] were 0.0484 µM and 5.26 µM, respectively. In addition, the TGI is greater than 100 µM in assay [2]; greater than 40.3 µM in assay [3]; 7.74 µM in assay [4]; 4.56 µM in [5]; 10.5 µM in [6]; greater than 100 µM in assay [7]. Also, the TGI is 18.9 µM in [8], 0.533 µM in [9] and greater than 32.9 µM in [10].

Turning to `CO/C1=C\C(C)=C\C(C)C(O)C(C)C/C(C)=C/C=C/C(OC)C(C(C)C(O)C(C)C2(O)CC(O)C(C)C(C(C)C)O2)OC1=O` (stereo unspecified), the TGI in assay [3] was 11.2 µM; in [4], 0.0914 µM and 0.0629 µM; in assay [5], 0.0042 µM; in assay [7], 24.9 µM; in assay [8], 29.5 µM; in assay [9] it was 17 µM. The TGI in assay [10] was 0.0587 µM and 0.0234 µM. In [4], the GI50 is 0.0237 µM.

Regarding `NNc1cccc(/C=C/c2ccccc2)cc1=O`, the GI50 in [1] was 13 µM; in assay [2], 7.76 µM; in assay [3], 3.8 µM; in [5], 4.31 µM; in [6] it was 45.9 µM; in [7], 14.9 µM. Further, the GI50 was 50.6 µM in assay [8], 6.93 µM in assay [9] and 1.86 µM in assay [10]. The TGI in assay [1] was 55.7 µM; in [2], greater than 100 µM; in assay [3] it was greater than 100 µM; in assay [5] it was 50.1 µM; in assay [6], greater than 100 µM; in assay [7], greater than 100 µM. Besides, the TGI in assay [8] was greater than 100 µM; in assay [9], greater than 100 µM; in [10], 9.24 µM.

Regarding `C1CSCCCSCCSCCCSC1`, the TGI in assay [1], in assay [2], in [3], in [5], in assay [6] and in assay [7] was greater than 100 µM throughout. Also, the TGI in assay [8], in [9] and in assay [10] was greater than 100 µM throughout.
